We go through two compounds from US12150940B2, “WASp-protecting small molecules, compositions, methods and uses thereof in the treatment of innate and acquired immune-related disorders or conditions” (BAR ILAN UNIVERSITY, priority 2016, dated 2024).

For one assay, the system named is PBMCs. In words: Lymphocyte activation in PBMCs (CD69 and activated LFA-1, flow cytometry). As to conditions: PBMCs stimulated with PMA and Ionomycin, vs control. In kind it is cell-based, human. The protocol:
Figures show 1×10^6 PBMC cells/ml stimulated with PMA and Ionomycin that were treated with DMSO or WASp-binding SMCs. After incubation, the cells were stained with PE-Cy5™-conjugated mouse anti-human CD69 and lymphocyte activation was measured by flow-cytometry as described in the Experimental procedures. Histograms of DMSO versus SMC #6 (FIG. 8A), SMC #30 (FIG. 8B), SMC #33 (FIG. 8C), and SMC #34 (FIG. 8D) are presented and represent three independent experiments.
After incubation, the cells were stained with anti-activated LFA-1 antibody (KIM127), followed by staining with Alexa488-Fluor goat anti-mouse IgG1 secondary antibody, and lymphocyte activation was measured by flow-cytometry as described in the Experimental procedures. Histogram of negative control versus SMC #6 is presented.
PBMCs or Jurkat cells (about 3×10^5 cells) were incubated for 4 h, at 37° C. with 50 ng/ml PMA and 250 ng/ml lonomycin, or 40 ng/ml PMA and 6 μM Ionomycin, respectively, or left untreated. After incubation, the cells were collected and stained with 1 μg/ml anti-active human LFA-1 antibody (purified from KIM127 hybridoma sup, ATCC Cat #: CRL-2838, Sigma) for 30 min in 37° C., followed by staining with Alexa488-Fluor goat anti-mouse IgG1 secondary antibody (Molecular Probes, Cat #: A-21121), 30 min on ice. Cells were then co-stained with PE-Cy5™-conjugated mouse anti-human CD69 (BD Pharmingen, Cat #: 555532) to measure lymphocyte activation.
Lymphocyte activation is a hallmark of a normal immune response. To test whether treatment with WASp-binding SMCs could upregulate lymphocyte activation, freshly-isolated PBMCs were incubated with SMCs or control (solvent only) and stimulated with PMA and lonomycin. The cells were then stained with two different antibodies, which recognize two lymphocyte activation markers, CD69 and an epitope exposed at the active conformation of the integrin LFA-1 (KIM127). Both were detected by flow-cytometry.

The target in another assay is T1, WIP-WASp interaction (Homo sapiens, UniProt P42768, K230R/R34Q).
T1 construct: expressed in transfected cells
Briefly: FRET analysis of WIP-WASp interaction in activated T-cells expressing CFP-WASp and YFP-WIP. In kind it is cell-based. As to conditions: anti-CD3 stimulatory coverslips, fixed after 5 min; mean ± SE. Here is the method:
FIG. 13A: Jurkat T cells stably expressing CFP-WASp and YFP-WIP were treated with WASp-binding SMC #6, SMC #30, SMC #33, SMC #34 or control. The cells were then plated on stimulatory coverslips (coated with an anti-CD3 antibody), and fixed after 5 min. Cells were imaged by confocal microscope, and FRET efficiency was measured by the donor-sensitized acceptor emission technology (see Experimental procedures for details).
FIG. 13B: graph summarizing the percentage FRET efficiency in cells plated on the stimulatory coverslips, with the indicated treatment. Data are from four independent experiments. Error bars represent the SE from the mean. P values were calculated by two-tailed Student's t-test.
Spreading assays were performed as previously described (Fried et al, 2014; Barda-Saad 2005). Briefly, T cells (2×10^6 cells/ml) were seeded on the bottom of chambered cover glasses (LabTek) that were pre-coated with anti-CD3 stimulatory monoclonal antibodies (10 μg/ml). The cells were incubated in imaging buffer [RPMI without phenol red containing 10% fetal calf serum (FCS) and 25 mM HEPES] at 37° C., 5% CO2, for the times indicated in the figure legends. Cells were fixed for 25 min with 4% paraformaldehyde in phosphate-buffered saline (PBS) and then were washed three times with PBS.
Double-color FRET was performed as described previously (Barda-Saad et al, 2005; Pauker, 2011, Pauker, 2012). […] The non-FRET components were calculated and removed with calibration curves derived from images of single-labeled cells containing CFP or YFP, as previously described (Barda-Saad et al, 2005). […] Bleed-through components were calculated as a function of the intensity of the expressed fluorescent proteins with data gathered from single-labeled cell lines. By using the intensity measured pixel by pixel through the different filter sets, as well as cross-talk elements that were isolated from the control, single-labeled cells, the measured FRET was corrected and the actual FRET efficiency at every pixel was determined. The relative FRET efficiency (FRETeff) was calculated on a pixel-by-pixel basis with the following equation: FRETeff=FRETcorr/(FRETcorr+donor)×100%, where FRETcorr is the pixel intensity in the corrected FRET image, and donor is the intensity of the corresponding pixel in the appropriate donor channel image. To increase the reliability of the calculations and to prevent low-level noise from distorting the calculated ratio, the inventors excluded pixels below 50 intensity units, as well as saturated pixels from the calculations, and set their intensities to zero. […] The FRET efficiency in the negative control system was measured and calculated in the same manner as that in the main experiment. […]

The next assay deals with platelets. In words: Platelet intra-cellular calcium concentration (Indo-1-AM). The assay is classed as cell-based, human. As to conditions: TRAP-6 10 μM, vs solvent. Here is the method: Freshly-isolated human platelets were incubated with either control DMSO or the indicated WASp-binding SMCs, specifically, SMC #6 (FIG. 11A), SMC #30 (FIG. 11B), SMC #33 (FIG. 11C) and SMC #34 (FIG. 11D). Platelets were stimulated with TRAP-6 and calcium levels were measured by spectrofluorometer, as described in Experimental procedures. Data are representative of three independent experiments.
Cells were incubated with 5 μM Indo-1-acetoxymethylester (Indo-1-AM, Teflabs) in Tyrode's buffer at 37° C. for 20 min. The cells were washed once, resuspended in Tyrode's buffer containing 10 mM HEPES and maintained at room temperature for 20 min. The cells were incubated at 37° C. for 5 min before measurements and then stimulated with 10 μM TRAP-6. The Ca^2+ influx was measured by spectrofluorometer using the Synergy 4 Microplate Reader (Bio Tek).
However, following receptor-mediated stimulation, platelets dramatically elevate their intra-cellular calcium concentrations, which in turn serve as signaling cues that evoke platelet effector functions, including platelet spreading, adhesion and aggregation (Varga-Sabo et al, 2009). Therefore, the ability of WASp-protecting SMCs to upregulate intra-cellular calcium accumulation in activated platelets was next tested. Freshly-isolated human platelets were incubated with SMC #6, #30, #33 and #34 or with the solvent (negative control). Following incubation, platelets were stimulated with thrombin receptor activator peptide TRAP-6 (10 μM) and calcium levels were measured by spectrofluorometer, using Indo-1-AM-based calcium assay as described in Experimental procedures.

A further assay concerns Jurkat T cells. Briefly: Lymphocyte migration on ICAM-1/SDF-1α-coated cover glasses. As to conditions: tracked over 20 min, mean ± SE. The assay is classed as cell-based, human. The protocol: Jurkat T cells were pretreated with DMSO or the indicated WASp-binding SMCs, and cell migration on ICAM-1/SDF-1α-coated cover glasses was tracked over a 20-min period, as described in Experimental procedures. Each line in FIG. 10A represents one cell. The tracks of five representative cells from each treatment are presented.
Error bars represent the SE from the mean. P values versus DMSO-treated control cells are presented and were calculated by two-tailed Student's t-test.
Approximately 1×10^5 lymphocytes were seeded over chambered coverslips (LabTek) pre-coated with 6 μg/ml ICAM-1 and 2 μg/ml SDF-1α. Cells were incubated at 37° C., 5% CO2 and DIC images were acquired with the Zeiss Observer Z1 inverted microscope every 5 s for 20 min under a 20× objective lens using Zen software. The random movement (Displacement and velocity) of the cells was automatically tracked and analyzed using TrackMate plugin of ImageJ software. An individual trace was assigned to each of the analyzed cells.
A common theme of active lymphocytes is their high migratory ability. This enables them to move within tissues and reach and engage target cells (Burkhardt et al, 2008). Because WASp plays a role in cellular motility, the ability of WASp-binding SMCs to effectively enhance the migration of lymphocytes was tested. The random movement of SMC-treated or control cells was automatically tracked and analyzed using live microscopy, as described in Experimental procedures.

The target of the next assay is T2, human WASp (Homo sapiens, UniProt P42768, K230R/R34Q).
T2 construct: expressed in transfected cells; host or cells: HEK 293T, transient transfection; unpurified cell lysate
T2 sequence (P42768 1-502 R34Q/K230R): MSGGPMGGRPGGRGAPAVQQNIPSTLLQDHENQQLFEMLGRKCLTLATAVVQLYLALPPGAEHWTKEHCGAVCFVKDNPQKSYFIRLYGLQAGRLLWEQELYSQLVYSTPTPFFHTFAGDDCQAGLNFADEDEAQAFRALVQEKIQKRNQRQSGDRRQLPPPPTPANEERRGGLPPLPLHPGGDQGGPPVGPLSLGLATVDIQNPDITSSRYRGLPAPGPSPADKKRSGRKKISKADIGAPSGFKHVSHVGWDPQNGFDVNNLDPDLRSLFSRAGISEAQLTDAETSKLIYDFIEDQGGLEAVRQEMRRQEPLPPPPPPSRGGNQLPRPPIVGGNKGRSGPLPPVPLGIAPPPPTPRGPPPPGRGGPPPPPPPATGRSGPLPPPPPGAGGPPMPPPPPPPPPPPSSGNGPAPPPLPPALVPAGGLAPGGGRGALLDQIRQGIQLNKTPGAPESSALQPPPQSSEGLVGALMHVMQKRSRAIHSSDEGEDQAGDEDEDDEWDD
Briefly: MicroScale Thermophoresis (MST) binding, YFP-WASp in HEK 293T cell lysate. Here is the method: Diluted cell lysates of YFP-WASp/N-WASp/WAVE2-expressing HEK 293T cells were incubated with serially-diluted (100 μM-3 nM) SMCs. The mixed lysates and SMCs were then loaded into standard-treated Monolith™ capillaries and the fluorescence of the samples was measured by the Monolith NT.115 instrument at 60% MST power. Binding curves of WASp with SMC #6 (FIG. 3A), SMC #30 (FIG. 3B), SMC #33 (FIG. 3C), SMC #34 (FIG. 3D) and Y-27632 (FIG. 3E) or of N-WASp (FIG. 3F) or WAVE2 (FIG. 3G) with SMC #34 were generated by the NanoTemper Analysis 2.231 software. Normalized fluorescence (hot fluorescence/initial fluorescence) is plotted as a function of SMC concentration. […]
YFP-tagged WASp was obtained from cell lysates of Human Embryonic Kidney (HEK) 293T, transiently transfected with YFP-WASp/WAVE2/N-WASp by DNA-calcium phosphate co-precipitation as previously described (Reicher et al, 2012). […] After loading into the instrument (Monolith NT.115, NanoTemper), the samples were measured by standard protocols at 60% MST power. […] KD values were determined using the NanoTemper analysis software (NT Analysis 1.5.37 or 2.2.31).
Following this in silico screening, the inventors identified eight SMCs (#6, #23, #24, #25, #30, #32, #33, #34, see Table 1). […] The SMCs that specifically bind the degradation pocket of WASp were further evaluated by the inventors.

T1 sequence (O43516 whole entry partner, one chain of several): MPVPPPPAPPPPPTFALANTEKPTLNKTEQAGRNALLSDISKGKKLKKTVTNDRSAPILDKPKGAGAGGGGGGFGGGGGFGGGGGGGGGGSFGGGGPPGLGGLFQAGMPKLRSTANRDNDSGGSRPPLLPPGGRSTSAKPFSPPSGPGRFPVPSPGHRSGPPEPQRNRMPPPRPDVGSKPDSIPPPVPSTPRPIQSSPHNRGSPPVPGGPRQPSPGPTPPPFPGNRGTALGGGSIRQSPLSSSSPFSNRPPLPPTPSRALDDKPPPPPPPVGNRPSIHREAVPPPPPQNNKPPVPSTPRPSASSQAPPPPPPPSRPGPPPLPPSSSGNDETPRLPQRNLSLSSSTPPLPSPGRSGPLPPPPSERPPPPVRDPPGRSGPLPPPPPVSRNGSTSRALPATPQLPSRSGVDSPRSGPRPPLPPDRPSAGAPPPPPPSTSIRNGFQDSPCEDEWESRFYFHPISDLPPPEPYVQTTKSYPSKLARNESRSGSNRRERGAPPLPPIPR

For the compound `COC(=O)c1ccc2c(=O)n(Cc3ccc(C(=O)NC4CCCC4)cc3)c(=S)[nH]c2c1` [SMC #30, 3-(4-Cyclopentylcarbamoyl-benzyl)-4-oxo-2-thioxo-1,2,3,4-tetrahydro-quinazoline-7-carboxylic acid methyl ester], the “lymphocyte activation (CD69, activated LFA-1)” value in the assay on PBMCs is “upregulation of lymphocyte activation”. Also, the “average FRET efficiency” value at WIP-WASp interaction stood at 24.4±1.4%. In the assay with platelets, the “intra-cellular calcium concentration in activated platelets” value is listed as “dramatically enhanced”. The mean cell displacement with Jurkat T cells was determined as 41.07±4.69.

With `C[C@@H](N)[C@H]1CC[C@H](C(=O)Nc2ccncc2)CC1` [Y-27632], the “binding to WASp” value on human WASp is reported as “did not show binding”.
